We go through three compounds from patent US11111243B2, “Azaindole compounds as histone methyltransferase inhibitors” (GLOBAL BLOOD THERAPEUTICS, INC., priority 2017, dated 2021).

The target in data set [1] is T1, G9a (Homo sapiens, UniProt Q96KQ7).
T1 sequence (Q96KQ7 1-1210): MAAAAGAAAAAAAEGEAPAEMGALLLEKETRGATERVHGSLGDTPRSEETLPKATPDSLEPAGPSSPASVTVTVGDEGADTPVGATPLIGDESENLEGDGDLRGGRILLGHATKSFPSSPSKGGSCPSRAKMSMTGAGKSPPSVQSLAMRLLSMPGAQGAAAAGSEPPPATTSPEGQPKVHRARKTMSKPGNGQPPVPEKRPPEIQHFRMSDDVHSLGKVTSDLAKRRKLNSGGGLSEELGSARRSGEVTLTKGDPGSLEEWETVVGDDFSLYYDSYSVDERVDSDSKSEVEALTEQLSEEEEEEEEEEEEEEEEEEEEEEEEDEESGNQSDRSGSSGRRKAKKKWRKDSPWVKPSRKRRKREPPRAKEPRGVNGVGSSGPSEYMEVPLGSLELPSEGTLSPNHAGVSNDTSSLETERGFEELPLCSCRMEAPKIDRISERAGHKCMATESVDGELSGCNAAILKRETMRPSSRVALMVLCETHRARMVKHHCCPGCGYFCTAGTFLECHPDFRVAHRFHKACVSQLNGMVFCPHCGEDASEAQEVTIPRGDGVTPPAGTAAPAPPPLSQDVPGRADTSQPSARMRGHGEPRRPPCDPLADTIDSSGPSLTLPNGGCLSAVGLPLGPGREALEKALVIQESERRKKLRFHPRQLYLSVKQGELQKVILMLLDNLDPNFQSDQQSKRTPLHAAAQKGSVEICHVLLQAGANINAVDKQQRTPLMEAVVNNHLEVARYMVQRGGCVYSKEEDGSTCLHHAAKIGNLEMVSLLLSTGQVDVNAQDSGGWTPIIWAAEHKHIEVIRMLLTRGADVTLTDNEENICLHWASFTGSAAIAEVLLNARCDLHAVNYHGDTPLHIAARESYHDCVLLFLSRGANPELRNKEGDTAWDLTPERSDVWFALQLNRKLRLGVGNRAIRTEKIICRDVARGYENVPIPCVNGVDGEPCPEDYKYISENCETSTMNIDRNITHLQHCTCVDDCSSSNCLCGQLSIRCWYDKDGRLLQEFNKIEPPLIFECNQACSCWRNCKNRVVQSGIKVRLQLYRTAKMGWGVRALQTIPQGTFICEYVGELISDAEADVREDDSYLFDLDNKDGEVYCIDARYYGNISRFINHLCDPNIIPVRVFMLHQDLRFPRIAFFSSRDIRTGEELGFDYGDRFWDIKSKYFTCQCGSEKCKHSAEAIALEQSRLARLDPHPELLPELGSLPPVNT
Description: G9a AlphaLISA enzymatic activity assay. The format is biochemical. To be noted: 0.15 nM G9a, 10 uM S-adenosyl-methionine, 100 nM biotinylated histone 3 peptide (1-21), 1 h room temperature. In a few lines:
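Reaction of 0.15 nM G9a with 10 uM SAM and 100 nM biotinylated histone H3 (1-21) peptide in 50 mM Tris-HCl pH9, 50 mM NaCl, 0.01% Tween-20, 1 mM DTT, 1 h at room temperature. H3K9me2 detected by AlphaLISA (anti-H3K9me2 acceptor, streptavidin donor beads, 615 nm); IC50 from percent inhibition across dilutions.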
(In general: In Alpha technology, singlet oxygen from a donor bead excites a nearby acceptor bead.)

In data set [2] the test system is bone marrow CD34+ hematopoietic cells. To be noted: human.
Description: Cryopreserved bone marrow CD34^+ hematopoietic cells obtained from healthy adult human donors were used for all studies. A 21 day ex vivo serum free culture system was utilized that consists of two phases. In culture phase I (culture days 1-7), CD34^+ cells were placed in media containing StemPro-34 complete media (1-glutamine, pen-strep and StemPro-34 nutrient supplement) (Invitrogen, Carlsbad, Calif.) supplemented with 50 ng/mL SCF (HumanZyme, Chicago, Ill.), 50 ng/mL FLT3-Ligand (HumanZyme) and 10 ng/mL IL-3 (HumanZyme). During the first phase of culture (days 0-7), the CD34^+ cells differentiate into progenitor cell populations that include erythroblasts. After 7 days, the cells were transferred to erythropoietin (EPO; Stemcell) supplemented medium (phase 2; culture days 7-21) which is comprised of the following: StemPro-34 complete medium, 4 U/mL EPO, 3 μM mifepristone (Sigma Aldrich, St. Louis, Mo.), 10 μg/mL insulin (Sigma Aldrich), 3 U/mL heparin (Sigma Aldrich) and 0.8 mg/mL holo transferrin (Sigma Aldrich). […]
Expression levels of α-, β- and γ-globin genes are assessed by quantitative PCR analyses. HbF protein levels are assessed by the human Hemoglobin F enzyme-linked immunosorbent assay (ELISA) Quantitation Kit (Bethyl Laboratory, Montgomery, Tex., USA). Percentages of cells expressing HbF are assessed by flow cytometry analysis. […]

In general, IC50 refers to the concentration that gives 50% inhibition. Higher therefore signals weaker potency.

Where a name gives a salt, the structure may show the parent alone.

In turn, `COc1cc2c(cc1OCCCN1CCCC1)[nH]c1ccnc(C3=CCNCC3)c12` [Compound 66, 4-{8-methoxy-7-[3-(pyrrolidin-1-yl)propoxy]-5H-pyrido[4,3-b]indol-1-yl}-1,2,3,6-tetrahydropyridine bishydrochloride] had an IC50 in data set [1] of 5.6 nM. In data set [2], the “Fold Induction” value is 1.3 fold.
The compound `COc1cc2c(cc1OCCCN1CCCC1)[nH]c1ccnc(N3CC[C@@H](O)C3)c12` [Compound 13, (3R)-1-{8-methoxy-7-[3-(pyrrolidin-1-yl)propoxy]-5H-pyrido[4,3-b]indol-1-yl}pyrrolidin-3-ol] registered an IC50 in data set [1] of 34 nM.
On the same count and under the same terms, for `COc1cc2c3cnccc3n(C)c2cc1OCCCN1CCCC1` [Compound 94, 1-[3-({8-methoxy-5-methyl-5H-pyrido[4,3-b]indol-7-yl}oxy)propyl]pyrrolidine hydrochloride] the value was 54 nM.
